Numbered stars: 1 amine (or outer) side, 2 acyl side, 3 side chain; on linkers, the order of the positions; unused ones are H or OH. Bridge positions count the residues as written; N and C are the ends. Square brackets hold non-standard residues; d marks the D form. Peptide text beside a SMILES is read from it. * marks the point of attachment. Phe(4-CF3) = N[C@@H](Cc1ccc(C(F)(F)F)cc1)C(=O)O; Bip = N[C@@H](Cc1ccc(-c2ccccc2)cc1)C(=O)O; dPhe(4-NH2) = Nc1ccc(C[C@@H](N)C(=O)O)cc1; Nip(3R) = O=C([C@@H]1CCCN([*:1])C1)[*:2]; Phe(4-NH2) = Nc1ccc(C[C@H](N)C(=O)O)cc1; dAla(2-furyl) = N[C@H](Cc1ccco1)C(=O)O; d(hPhe) = N[C@H](CCc1ccccc1)C(=O)O; 2Pal = N[C@@H](Cc1ccccn1)C(=O)O; 3Pal = N[C@@H](Cc1cccnc1)C(=O)O; 4Pal = N[C@@H](Cc1ccncc1)C(=O)O; Malonyl = O=C(CC(=O)[*:2])[*:1]; d3Pal = N[C@H](Cc1cccnc1)C(=O)O; d4Pal = N[C@H](Cc1ccncc1)C(=O)O; d2Thi = N[C@H](Cc1cccs1)C(=O)O; Suc = O=C(CCC(=O)[*:2])[*:1]; X2 = O=C(O)[C@H]1CCCN(*)C1; NMeA = CN[C@@H](C)C(=O)O; Nphe = O=C(O)CNCc1ccccc1; Ac3c = NC1(C(=O)O)CC1; Aib = CC(C)(N)C(=O)O; Inp = O=C(O)C1CCNCC1
Molecular target: T1, TNFα / TNFα receptor (TNFα R1/Fc) (Homo sapiens, UniProt P01375)
T1 construct: purchased R&D Systems
Assay: Inhibition of binding of TNFα to the TNFα receptor (plate ELISA competition)
Details: Table 2; read-out: Activity (IC50, inhibition of TNFα binding to TNFα R1/Fc)
Method: The compounds listed in Table 2 below were assayed for ability to inhibit binding of TNFα to the TNFα receptor (TNFα R1/Fc). The assays were performed as described in the following procedure: TNFα (R&D Systems) was coated on high binding plate wells (Corning 96-well) at a single uniform concentration of 15 nM, 100 μL/well in PBS. The coating proceeded for 30 minutes at 37° C. then 10 minutes at 4° C. The coated plate was washed with PBST, then 250 μL/well of blocking solution (PBST 0.1% BSA, bovine serum albumin) was added and incubation proceeded for 30-45 minutes at room temperature with agitation. The solution phase competition proceeded separately with the dilutions of test compound in PBST (phosphate buffered saline with Tween 20), 2% DMSO in a polypropylene plate (Corning 96-well storage plate) with a single concentration, 8.33 nM of the high affinity receptor for TNFα (R&D Systems). This solution phase incubation proceeded for 30 minutes at room temperature with agitation and was then added to the washed TNFα coated assay plate, 100 μL/well, and was incubated for a further 30 minutes at room temperature with agitation. The assay plate was washed and 100 μL goat anti-human IgG (Fc) HRP labeled antibody in PBST, 13 pM, (KPL Cat#04-10-2) was added to each well. This incubation proceeded for 25-30 minutes at room temperature with agitation. Following this incubation step, the plate was washed and a 100 μL TMB solution (SUREBLUE™ TMB Peroxidase substrate, KPL) was added per well and allowed to stand approximately 3-5 minutes for development. The TMB reaction was stopped with the addition of 0.5N HCl and then the plate was read for absorbance at 450 nm.

T1 sequence (P01375 77-233 limits assumed, species assumed): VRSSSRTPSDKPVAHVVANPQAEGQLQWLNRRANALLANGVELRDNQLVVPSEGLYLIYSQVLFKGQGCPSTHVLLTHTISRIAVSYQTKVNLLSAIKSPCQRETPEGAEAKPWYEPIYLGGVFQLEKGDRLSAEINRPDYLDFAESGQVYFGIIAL

Row | IC50 | Compound
1 | > 100 µM | O=C1CCC(=O)N[C@H](CCc2ccccc2)C(=O)N[C@@H](Cc2ccc(C(F)(F)F)cc2)C(=O)N[C@H](Cc2ccccc2)C(=O)N[C@H](C(=O)O)Cc2ccc(cc2)N1 [Compound 2] ([d(hPhe)][Phe(4-CF3)][dF][Phe(4-NH2)]-OH; linker N-4 via Suc)
2 | 30 to 100 µM | O=C1CC(=O)N[C@H](Cc2cccs2)C(=O)N[C@@H](Cc2ccc(-c3ccccc3)cc2)C(=O)N[C@H](Cc2ccccc2)C(=O)N[C@H](C(=O)O)Cc2ccc(cc2)N1 [Compound 5] ([d2Thi][Bip][dF][Phe(4-NH2)]-OH; linker N-4 via Malonyl)
3 | > 100 µM | O=C1CCNc2ccc(cc2)C[C@@H](C(=O)O)NC(=O)[C@@H](Cc2ccccc2)NC(=O)[C@H](Cc2ccc(-c3ccccc3)cc2)NC(=O)[C@@H](Cc2cccs2)N1 [Compound 6]
4 | > 100 µM | O=C(O)CN1Cc2cccc(c2)CNC(=O)CCC(=O)N[C@H](Cc2cccs2)C(=O)N[C@@H](Cc2ccc(-c3ccccc3)cc2)C(=O)N[C@H](Cc2ccccc2)C1=O [Compound 7]
5 | 30 to 100 µM | O=C1COc2ccc(cc2)C[C@@H](C(=O)O)NC(=O)[C@@H](Cc2ccccc2)NC(=O)[C@H](Cc2ccc(-c3ccccc3)cc2)NC(=O)[C@@H](Cc2cccs2)N1 [Compound 8]
6 | 10 to 30 µM | O=C(O)[C@@H]1Cc2ccc(cc2)NC(=O)[C@@H]2CCCC[C@H]2C(=O)N[C@H](Cc2cccs2)C(=O)N[C@@H](Cc2ccc(-c3ccccc3)cc2)C(=O)N[C@H](Cc2ccccc2)C(=O)N1 [Compound 9]
7 | > 100 µM | O=C1CCC(=O)N[C@H](CCc2ccccc2)C(=O)N[C@@H](Cc2ccc(C(F)(F)F)cc2)C(=O)N[C@H](Cc2ccccc2)C(=O)N[C@@H](C(=O)N[C@H](Cc2ccccc2)C(=O)O)Cc2ccc(cc2)N1 [Compound 13] ([d(hPhe)][Phe(4-CF3)][dF][dPhe(4-NH2)][dF]-OH; linker N-4 via Suc)
8 | 30 to 100 µM | CC(C)(NC(=O)[C@H]1Cc2ccc(cc2)NC(=O)CCC(=O)N[C@H](CCc2ccccc2)C(=O)N[C@@H](Cc2ccc(C(F)(F)F)cc2)C(=O)N[C@H](Cc2ccccc2)C(=O)N1)C(=O)O [Compound 14] ([d(hPhe)][Phe(4-CF3)][dF][dPhe(4-NH2)][Aib]-OH; linker N-4 via Suc)
9 | 10 to 30 µM | O=C1CCC(=O)N[C@H](CCc2ccccc2)C(=O)N[C@@H](Cc2ccc(C(F)(F)F)cc2)C(=O)N[C@H](Cc2ccccc2)C(=O)N[C@@H](C(=O)NC2(C(=O)O)CC2)Cc2ccc(cc2)N1 [Compound 17] ([d(hPhe)][Phe(4-CF3)][dF][dPhe(4-NH2)][Ac3c]-OH; linker N-4 via Suc)
10 | 30 to 100 µM | O=C1CCC(=O)N[C@H](Cc2cccs2)C(=O)N[C@@H](Cc2ccc(-c3ccccc3)cc2)C(=O)N[C@H](Cc2ccccc2)C(=O)N[C@H](C(=O)N[C@@H](CO)C(=O)O)Cc2ccc(cc2)N1 [Compound 22] ([d2Thi][Bip][dF][Phe(4-NH2)]S-OH; linker N-4 via Suc)
11 | > 100 µM | O=C1CCC(=O)N[C@H](Cc2cccs2)C(=O)N[C@@H](Cc2ccc(-c3ccccc3)cc2)C(=O)N[C@H](Cc2ccccc2)C(=O)N[C@H](C(=O)N2CCC(C(=O)O)CC2)Cc2ccc(cc2)N1 [Compound 23] ([d2Thi][Bip][dF][Phe(4-NH2)][Inp]-OH; linker N-4 via Suc)
12 | < 10 µM | CC(C)(NC(=O)[C@@H]1Cc2ccc(cc2)NC(=O)CCC(=O)N[C@H](Cc2cccs2)C(=O)N[C@@H](Cc2ccc(-c3ccccc3)cc2)C(=O)N[C@H](Cc2ccccc2)C(=O)N1)C(=O)O [Compound 25] ([d2Thi][Bip][dF][Phe(4-NH2)][Aib]-OH; linker N-4 via Suc)
13 | > 100 µM | O=C(O)C[C@H](NC(=O)[C@@H]1Cc2ccc(cc2)NC(=O)CCC(=O)N[C@H](Cc2cccs2)C(=O)N[C@@H](Cc2ccc(-c3ccccc3)cc2)C(=O)N[C@H](Cc2ccccc2)C(=O)N1)C(=O)O [Compound 27] ([d2Thi][Bip][dF][Phe(4-NH2)]D-OH; linker N-4 via Suc)
14 | < 10 µM | NCCCC[C@H](NC(=O)[C@@H]1Cc2ccc(cc2)NC(=O)CCC(=O)N[C@H](Cc2cccs2)C(=O)N[C@@H](Cc2ccc(-c3ccccc3)cc2)C(=O)N[C@H](Cc2ccccc2)C(=O)N1)C(=O)O [Compound 28] ([d2Thi][Bip][dF][Phe(4-NH2)]K-OH; linker N-4 via Suc)
15 | 10 to 30 µM | C[C@@H](C(=O)O)N(C)C(=O)[C@@H]1Cc2ccc(cc2)NC(=O)CCC(=O)N[C@H](Cc2cccs2)C(=O)N[C@@H](Cc2ccc(-c3ccccc3)cc2)C(=O)N[C@H](Cc2ccccc2)C(=O)N1 [Compound 30] ([d2Thi][Bip][dF][Phe(4-NH2)][NMeA]-OH; linker N-4 via Suc)
16 | > 100 µM | O=C1CCC(=O)N[C@H](Cc2cccs2)C(=O)N[C@@H](Cc2ccc(-c3ccccc3)cc2)C(=O)N[C@H](Cc2ccccc2)C(=O)N[C@H](C(=O)N2CCC[C@@H]2C(=O)O)Cc2ccc(cc2)N1 [Compound 32] ([d2Thi][Bip][dF][Phe(4-NH2)][dP]-OH; linker N-4 via Suc)
17 | > 100 µM | O=C1CCC(=O)N[C@H](Cc2cccs2)C(=O)N[C@@H](Cc2ccc(-c3ccccc3)cc2)C(=O)N[C@H](Cc2ccccc2)C(=O)N[C@H](C(=O)N2CCC[C@H](C(=O)O)C2)Cc2ccc(cc2)N1 [Compound 37] ([d2Thi][Bip][dF][Phe(4-NH2)]-X2; linker N-4 via Suc)
18 | 30 to 100 µM | O=C1CCC(=O)N[C@H](Cc2cccs2)C(=O)N[C@@H](Cc2ccc(-c3ccccc3)cc2)C(=O)N[C@H](Cc2ccccc2)C(=O)N[C@H](C(=O)N2CCC[C@@H](C(=O)O)C2)Cc2ccc(cc2)N1 [Compound 38] ([d2Thi][Bip][dF][Phe(4-NH2)]-{Nip(3R)}; linker N-4 via Suc)
19 | > 100 µM | O=C1CCC(=O)N[C@H](Cc2cccs2)C(=O)N[C@@H](Cc2ccc(-c3ccccc3)cc2)C(=O)N[C@H](Cc2ccccc2)C(=O)N[C@H](C(=O)O)CCCCN1 [Compound 42] ([d2Thi][Bip][dF]K-OH; linker N-4 via Suc)
20 | > 100 µM | C[C@H]1NC(=O)[C@H](Cc2ccc(-c3ccccc3)cc2)NC(=O)[C@@H](Cc2cccs2)NC(=O)CCC(=O)Nc2ccc(cc2)C[C@@H](C(=O)O)NC1=O [Compound 44] ([d2Thi][Bip][dA][Phe(4-NH2)]-OH; linker N-4 via Suc)
21 | > 100 µM | C[C@@H]1NC(=O)[C@@H](Cc2cccs2)NC(=O)CCC(=O)Nc2ccc(cc2)C[C@@H](C(=O)O)NC(=O)[C@@H](Cc2ccccc2)NC1=O [Compound 45] ([d2Thi]A[dF][Phe(4-NH2)]-OH; linker N-4 via Suc)
22 | > 100 µM | C[C@H]1NC(=O)CCC(=O)Nc2ccc(cc2)C[C@@H](C(=O)O)NC(=O)[C@@H](Cc2ccccc2)NC(=O)[C@H](Cc2ccc(-c3ccccc3)cc2)NC1=O [Compound 46] ([dA][Bip][dF][Phe(4-NH2)]-OH; linker N-4 via Suc)
23 | 10 to 30 µM | O=C1CCC(=O)N[C@H](Cc2cccs2)C(=O)N[C@@H](Cc2ccc(-c3ccccc3)cc2)C(=O)N[C@H](Cc2ccco2)C(=O)N[C@H](C(=O)O)Cc2ccc(cc2)N1 [Compound 48] ([d2Thi][Bip][dAla(2-furyl)][Phe(4-NH2)]-OH; linker N-4 via Suc)
24 | > 100 µM | O=C1CCC(=O)N[C@H](Cc2cccs2)C(=O)N[C@@H](Cc2ccc(-c3ccccc3)cc2)C(=O)N[C@@H](Cc2ccncc2)C(=O)N[C@H](C(=O)O)Cc2ccc(cc2)N1 [Compound 49] ([d2Thi][Bip][4Pal][Phe(4-NH2)]-OH; linker N-4 via Suc)
25 | > 100 µM | O=C1CCC(=O)N[C@H](Cc2cccs2)C(=O)N[C@@H](Cc2ccc(-c3ccccc3)cc2)C(=O)N[C@H](Cc2ccncc2)C(=O)N[C@H](C(=O)O)Cc2ccc(cc2)N1 [Compound 50] ([d2Thi][Bip][d4Pal][Phe(4-NH2)]-OH; linker N-4 via Suc)
26 | > 100 µM | O=C1CCC(=O)N[C@H](Cc2cccs2)C(=O)N[C@@H](Cc2ccc(-c3ccccc3)cc2)C(=O)N[C@H](Cc2cccnc2)C(=O)N[C@H](C(=O)O)Cc2ccc(cc2)N1 [Compound 51] ([d2Thi][Bip][d3Pal][Phe(4-NH2)]-OH; linker N-4 via Suc)
27 | > 100 µM | O=C1CCC(=O)N[C@H](Cc2cccs2)C(=O)N[C@@H](Cc2ccc(-c3ccccc3)cc2)C(=O)N[C@@H](Cc2cccnc2)C(=O)N[C@H](C(=O)O)Cc2ccc(cc2)N1 [Compound 52] ([d2Thi][Bip][3Pal][Phe(4-NH2)]-OH; linker N-4 via Suc)
28 | > 100 µM | O=C1CCC(=O)N[C@H](Cc2cccs2)C(=O)N[C@@H](Cc2ccc(-c3ccccc3)cc2)C(=O)N[C@@H](Cc2ccccn2)C(=O)N[C@H](C(=O)O)Cc2ccc(cc2)N1 [Compound 53] ([d2Thi][Bip][2Pal][Phe(4-NH2)]-OH; linker N-4 via Suc)
29 | > 100 µM | CC(C)C[C@@H]1NC(=O)[C@H](Cc2ccc(-c3ccccc3)cc2)NC(=O)[C@@H](Cc2cccs2)NC(=O)CCC(=O)Nc2ccc(cc2)C[C@@H](C(=O)O)NC1=O [Compound 54] ([d2Thi][Bip]L[Phe(4-NH2)]-OH; linker N-4 via Suc)
30 | > 100 µM | O=C1CCC(=O)N[C@H](Cc2cccs2)C(=O)N[C@@H](Cc2ccc(-c3ccccc3)cc2)C(=O)N(Cc2ccccc2)CC(=O)N[C@H](C(=O)O)Cc2ccc(cc2)N1 [Compound 55] ([d2Thi][Bip][Nphe][Phe(4-NH2)]-OH; linker N-4 via Suc)
